Assay [1] concerns GM1-NPCs originated neurosphere. Briefly: Recovery of GM1-NPCs/neurosphere morphology by the inhibition of inflammasome (phase-contrast microscopy). As to conditions: GM1-NPCs cultured with 1 μg/ml rhIL1RA or 10 μM Z-YVAD-FMK, 2~4 weeks; FIG. 30a. In kind it is cell-based, human. As for the experimental part:
To investigate the recovery of neural damage caused by the increased activation of inflammasome related metabolic pathway in GM1, GM1-NPCs were treated with the inflammasome inhibitors IL1β antagonist (rhIL1RA) and caspase-1 inhibitor (Z-YVAD-FMK), and then the morphology of GM1-NPCs was investigated.
Particularly, the differentiation of GM1-NPCs was induced by the same manner as described in Example <4-1>. Then, the induced GM1-NPCs were cultured in the culture medium respectively treated with 1 μg/ml rhIL1RA (R&D Systems, USA) or 10 μM Z-YVAD-FMK (Merck Millipore, Germany) in order to inhibit inflammasome therein. 2˜4 weeks later, the cultured GM1-NPCs originated neurosphere was obtained. The morphology of neurosphere was observed by phase-contrast microscopy.

Assay [2] has as its system GM1-NPCs. Briefly: Gene expression pattern in GM1-NPCs treated with inflammasome inhibitor (microarray, qPCR). In kind it is cell-based, human. As to conditions: for tendency of changed genes to recover to the normal gene expression pattern: GM1-NPCs treated with Z-YVAD-FMK (10 μM) or rhIL1RA (1 μg/ml), FIG. 31, 33. As for the experimental part:
Particularly, GM1-iPSCs were constructed by the same manner as described in Example 2 and the differentiation of GM1-NPCs was induced by the same manner as described in Example <4-1>. Then, RNA was extracted from GM1-fibroblasts, GM1-iPSCs, or GM1-NPCs by using RNAiso Plus (Takara, Japan) or RNeasy mini kit (Qiagen, USA) according to the manufacturer's protocol. Reverse transcription PCR (PT PCR) was performed using 1˜2 μg of the extracted RNA as a template with Superscript III (Invitrogen, USA) in order to synthesize cDNA of the cell genome. Upon completion of the RT-PCR, 10 μl of qPCR reaction mixture was prepared by mixing 0.2 μl of the reaction product above, 1 μM oligonucleotide primer, […] of FAST SYBR green master mix (Applied Biosystems, USA), and distilled water, which proceeded to qPCR using 7500 Fast Real-time PCR system (Applied Biosystems, USA). The expression of the control GAPDH gene was also confirmed by the same manner as described above to correct the expression level. Based on the expression level of GAPDH mRNA, the fold change of NESTIN, NCAM, PAX6, OTX2, or REX1 mRNA was calculated.
Particularly, GM1-iPSCs were constructed by the same manner as described in Example 2, and the differentiation of GM1-NPCs was induced therefrom by the same manner as described in Example <4-1>. Then, GM1-fibroblasts, GM1-iPSCs, and GM1-NPCs were obtained. Microarray was performed by using Low RNA input linear amplification kit, cRNA cleanup module, and Whole Human Genome Microarray 4×44K (Agilent Technology, USA) according to the manufacturer's protocol. The obtained microarray images were revised as signals corresponding to WT-fibroblasts, WT-iPSCs, and WT-NPCs.
Particularly, GM1-NPCs were differentiated according to the method described in Example <4-1>, and then treated with rhIL1RA or Z-YVAD-FMK by the same manner as described in Example <9-1>. Microarray was performed by the same manner as described in Example <7-1> in order to investigate the up- or down-regulation of the gene involved in inflammasome. […] WT-NPC was used as the normal control. As for the negative control, GM1-NPCs were treated with DMSO instead of rhIL1RA or Z-YVAD-FMK. The expression pattern (either up- or down regulation) and the mRNA expression level were investigated by the same manner as described above.
A general note: Quantitative PCR measures a nucleic acid by following its amplification.

[3] abbreviates: GM1-NPCs treated with Z-YVAD-FMK (10 μM), FIG. 32.

As to `COC(=O)C[C@H](NC(=O)[C@H](C)NC(=O)[C@@H](NC(=O)C(Cc1ccc(O)cc1)NC(=O)OCc1ccccc1)C(C)C)C(=O)CF` (stereo partly drawn) [Z-YVAD-FMK, methyl(3S)-3-[(2S)-2-[(2S)-2-(2-{[(benzyloxy)carbonyl]amino}-3-(4-hydroxyphenyl)propanamido)-3-methylbutanamido]propanamido]-5-fluoro-4-oxopentanoate], in assay [1], the “morphology of GM1-neurosphere” value is on record as “recovering the GM1 patient-specific cell morphology”. In addition, in assay [2], the “tendency of changed genes to recover to the normal gene expression pattern” value is listed as “tendency to recover their gene expression patterns changed by GM1 mediated neural damage back to the normal pattern”. Also, in assay [2] (setting [3]), the “increase of the reduced B4GALNT expression” value worked out at 2.6 fold and the “reduction of GLB1 expression compared with that in GM1-NPCs” value was 47%. Moreover, in assay [2] (GM1-NPCs treated with Z-YVAD-FMK (10 μM), of total 27,375 oligo probe pairs, microarray, FIG. 31), the “oligo probe pairs displaying the changed expression pattern” value is 9.3%.

As for “rhIL1RA: interleukin 1-receptor antagonist protein, SEQ. ID. NO: 2; cat #280-RA-050 (rhIL-1ra), R&D systems”, in assay [1], the “morphology of GM1-neurosphere” value is given as “recovering the GM1 patient-specific cell morphology”. Moreover, in assay [2], the “tendency of changed genes to recover to the normal gene expression pattern” value is “tendency to recover the abnormal gene expression in GM1 cells to the normal expression pattern”. Also, the “genes displaying the changed expression pattern” value in assay [2] (GM1-NPCs treated with rhIL1RA (1 μg/ml), FIG. 33) is given as 3.6%.

Source of the values: patent publication US10035830B2, “Method for treatment of GM1 gangliosidosis” (Korea Research Institute of Bioscience and Biotechnology, priority 2014, dated 2018).
